As usually defined, the Ki is a measure of affinity in units of concentration, obtained from inhibition or displacement. As a reminder, the EC50 is the concentration at which the effect is half-maximal. As a reminder, the Emax is the greatest response seen or fitted, relative to the assay's reference.

Data on 21 compounds can be found in patent US20260265246A1 (ICAHN SCHOOL OF MEDICINE AT MOUNT SINAI, priority 2021, published 2026).

Like-named read-outs stand apart in the source and are kept apart here.

For assay [1], the target named is T1, 5HT2A receptor (Homo sapiens, UniProt P28223). The experiment in a line: biochemical. It is filed as binding. Further details: expressed in transfected cells; crude membranes.
T1 sequence (P28223 whole entry): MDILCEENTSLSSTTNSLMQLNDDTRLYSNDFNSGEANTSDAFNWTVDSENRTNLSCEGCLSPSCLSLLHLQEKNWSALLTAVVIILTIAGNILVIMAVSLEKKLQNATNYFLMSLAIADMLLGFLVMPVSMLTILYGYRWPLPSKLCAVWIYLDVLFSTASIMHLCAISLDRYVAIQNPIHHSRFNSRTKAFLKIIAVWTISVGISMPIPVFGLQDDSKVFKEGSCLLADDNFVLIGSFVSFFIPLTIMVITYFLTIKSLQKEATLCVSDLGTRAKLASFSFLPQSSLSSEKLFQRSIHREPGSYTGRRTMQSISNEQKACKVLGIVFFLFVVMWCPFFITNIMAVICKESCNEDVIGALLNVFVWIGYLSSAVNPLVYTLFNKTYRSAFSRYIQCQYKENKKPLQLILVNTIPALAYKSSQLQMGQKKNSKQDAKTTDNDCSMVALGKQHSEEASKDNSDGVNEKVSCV
The target of assay [2] is T1, 5HT2A receptor. Put plainly: cell-based. The following applies: for Emax: HEK-293T. Further details: expressed in transfected cells; host or cells: HEK293T cells, transient co-transfection.
Assay [3] deals with T1, 5HT2A receptor. Put plainly: cell-based. Set-up: expressed in transfected cells; host or cells: HEK293T cells, transient co-transfection. The following applies: for Emax: HEK-293T. This is another data set of the same source.
Setting [4] is: 5HT2A Ki (nM), secondary binding assay, Cheng-Prusoff.
Setting [5] is: 5HT2A β-Arr EC50 (nM), BRET1 beta-arrestin2 recruitment, HEK293T.
Where [6] appears, read: BRET1 beta-arrestin2 recruitment, HEK293T, normalized to 5-HT, read-out: 5HT2A β-Arr Emax (%).
Setting [7] is: 5HTA Gq EC50 (nM), BRET2 Gαq dissociation, HEK293T.
Where [8] appears, read: BRET2 Gαq dissociation, HEK293T, normalized to 5-HT, read-out: 5HTA Gq Emax (%).
The mark [9] stands for this setting: BRET1 beta-arrestin2 recruitment, HEK293T cells, normalized to 5-HT, read-out: 5HT2A β-Arr Emax (%).
The mark [10] stands for this setting: BRET2 Gαq dissociation, HEK293T cells, read-out: 5HT2A Gq EC50.
Setting [11] is: BRET2 Gαq dissociation, HEK293T cells, normalized to 5-HT, read-out: 5HT2A Gq Emax (%).
Setting [12] is: read-out: 5HT2A β-Arr Emax (%), BRET1 beta-arrestin2 recruitment, HEK293T, normalized to 5-HT.
The mark [13] stands for this setting: read-out: 5HTA Gq Emax (%), BRET2 Gαq dissociation, HEK293T, normalized to 5-HT.
Setting [14] is: 5HT2A Ki (nM), secondary radioligand binding, Ki from IC50 by Cheng-Prusoff.
The mark [15] stands for this setting: 5HT2A β-Arr EC50 (nM), BRET1 beta-arrestin2 recruitment, HEK293T cells.
[16] abbreviates: 5HT2A Gq EC50 (nM), BRET2 Gαq dissociation, HEK293T cells.
Setting [17] is: BRET2 Gαq dissociation, HEK293T, read-out: 5HTA Gq EC50.
[18] abbreviates: BRET1 beta-arrestin2 recruitment, HEK293T, read-out: 5HT2A β-Arr EC50.
[19] abbreviates: secondary binding assay, Cheng-Prusoff, read-out: 5HT2A Ki.

The compound `CCN1CCC=C(c2nn(CC)c3c(Cl)cccc23)C1` [Example 146, 7-chloro-1-ethyl-3-(1-ethyl-1,2,5,6-tetrahydropyridin-3-yl)-1H-indazole] had a Ki in assay [1] (setting [4]) of 171 nM. The EC50 turned out to be 1530 nM in assay [2] (setting [5]) and 51.7 nM in assay [3] (setting [7]). Further, the Emax in assay [2] (setting [6]) stood at 56.7%; in assay [3] (setting [8]), 54.5%.
For `COc1cccc2[nH]cc(C3=CCCN(C)C3)c12` [Example 20, 4-methoxy-3-(1-methyl-1,2,5,6-tetrahydropyridin-3-yl)-1H-indole], the Ki in assay [1] (secondary radioligand binding, Ki from IC50 by Cheng-Prusoff, read-out: 5HT2A Ki) turned out to be 60 nM. The EC50 in assay [2] (BRET1 beta-arrestin2 recruitment, HEK293T cells, read-out: 5HT2A β-Arr EC50) was 61.8 nM; in assay [3] (setting [10]), 3 nM. In addition, the Emax in assay [2] (setting [9]) came to 47.7%; in assay [3] (setting [11]), 91%.
As for `Clc1cccc2c(C3CNC3)c[nH]c12` [Example 255, 3-(azetidin-3-yl)-7-chloro-1H-indole], the Ki in assay [1] (setting [4]) was found to be 159 nM. Besides, the EC50 amounted to 302 nM in assay [2] (setting [5]) and 68.2 nM in assay [3] (setting [7]). Further, the Emax in assay [2] (setting [12]) was found to be 42.3%; in assay [3] (setting [13]), 81.1%.
Regarding `FC1(F)C2CNCC21c1n[nH]c2c(Cl)cccc12` (stereo not drawn) [Example 199, 7-chloro-3-(6,6-difluoro-3-azabicyclo[3.1.0]hexan-1-yl)-1H-indazole], in assay [1] (setting [4]), the affinity corresponds to a Ki of 3440 nM. The EC50 stood at 956 nM in assay [2] (setting [5]) and 174 nM in assay [3] (setting [7]). The Emax in assay [2] (setting [6]) was found to be 76.5%; in assay [3] (setting [8]), 87.1%.
With `Cc1cccc2[nH]nc(C3=CCCN(C)C3)c12` [Example 97, 4-methyl-3-(1-methyl-1,2,5,6-tetrahydropyridin-3-yl)-1H-indazole], the Ki in assay [1] (setting [14]) was 786 nM. In addition, the half-maximal effective concentration (EC50) was found to be 605 nM in assay [2] (setting [15]) and 80.4 nM in assay [3] (setting [10]). Besides, the Emax stood at 64.6% in assay [2] (setting [9]) and 69% in assay [3] (setting [11]).
Turning to `Clc1cnc2[nH]cc(C3=CCCNC3)c2c1` [Example 3, 5-chloro-3-(1,2,5,6-tetrahydropyridin-3-yl)-1H-pyrrolo[2,3-b]pyridine], the inhibition constant Ki in assay [1] (setting [14]) worked out at 143 nM. Further, the figures for the EC50 in assay [2] (setting [15]) and in assay [3] (setting [16]) were 229 nM and 29.4 nM, respectively. Moreover, the results for the Emax in assay [2] (setting [9]) and in assay [3] (setting [11]) were 43.8% and 82%, respectively.
`CCCN1CCC=C(c2c[nH]c3c(Cl)cc(F)cc23)C1` [Example 159] displayed a Ki in assay [1] (setting [4]) of 126 nM. The EC50 in assay [2] (setting [5]) amounted to 66.9 nM; in assay [3] (setting [7]) it was 17.5 nM. The Emax in assay [2] (setting [12]) is 39.7%; in assay [3] (setting [13]) it was 90.3%.
With `FCCCN1CCC=C(c2n[nH]c3c(Cl)cccc23)C1` [Example 165, 7-chloro-3-(1-(3-fluoropropyl)-1,2,5,6-tetrahydropyridin-3-yl)-1H-indazole], the Ki in assay [1] (setting [4]) is 342 nM. Besides, the EC50 is 157 nM in assay [2] (setting [5]) and 85.8 nM in assay [3] (setting [17]). Further, the Emax in assay [2] (setting [6]) came out at 28.7%; in assay [3] (setting [8]) it was 65%.
Take `CCc1[nH]c2ccccc2c1C1=CCCNC1` [Example 62, 2-ethyl-3-(1,2,5,6-tetrahydropyridin-3-yl)-1H-indole]: in assay [1] (setting [14]), the affinity, expressed as Ki, was 810 nM. In addition, the EC50 in assay [2] (setting [15]) amounted to 633 nM; in assay [3] (setting [10]) it was 75.7 nM. Also, the Emax in assay [2] (setting [9]) is 45.1%; in assay [3] (setting [11]) it was 49.1%.
Regarding `CC(C)N1CC=C(c2n[nH]c3c(Cl)cccc23)C1` [Example 219, 7-chloro-3-(1-isopropyl-2,5-dihydro-1H-pyrrol-3-yl)-1H-indazole], the affinity in assay [1] (setting [4]), expressed as Ki, was 313 nM. The EC50 in assay [2] (setting [5]) was 537 nM; in assay [3] (setting [17]), 25.5 nM. Besides, the Emax in assay [2] (setting [6]) is 71.9%; in assay [3] (setting [8]), 55.5%.
In assay [1] (setting [14]), `Cc1cccc2c(C3=CCCN(Cc4ccccc4)C3)c[nH]c12` [Example 68, 3-(1-benzyl-1,2,5,6-tetrahydropyridin-3-yl)-7-methyl-1H-indole] registered a Ki of 115 nM. In addition, the values for the EC50 in assay [2] (setting [15]) and in assay [3] (setting [16]) were 490 nM and 127 nM, respectively. Further, the Emax in assay [2] (setting [9]) was 42.4%; in assay [3] (setting [11]) it was 40.2%.
In the case of `Fc1cccc2[nH]nc(C3=CCCNC3)c12` [Example 81, 4-fluoro-3-(1,2,5,6-tetrahydropyridin-3-yl)-1H-indazole], in assay [1] (setting [14]), the Ki stood at 348 nM. Besides, the figures for the EC50 in assay [2] (setting [15]) and in assay [3] (setting [10]) were 211 nM and 26.5 nM, respectively. In addition, the Emax in assay [2] (setting [9]) amounted to 75.7%; in assay [3] (setting [11]), 92.3%.
In assay [1] (setting [4]), `Clc1cccc2c(C3=CCCCNC3)n[nH]c12` [Example 208, 7-chloro-3-(2,5,6,7-tetrahydro-1H-azepin-3-yl)-1H-indazole] had a Ki above 10000 nM. For the same compound, the figures for the EC50 in assay [2] (setting [5]) and in assay [3] (setting [7]) were 1900 nM and 849 nM, respectively. In addition, the figures for the Emax in assay [2] (setting [12]) and in assay [3] (setting [13]) were 48.9% and 95.7%, respectively.
In assay [1] (setting [14]), `CN1CCC=C(c2c[nH]c3cc(Cl)ccc23)C1` [Example 32, 6-chloro-3-(1-methyl-1,2,5,6-tetrahydropyridin-3-yl)-1H-indole] registered a Ki of 236 nM. For the same compound, the EC50 is 709 nM in assay [2] (setting [15]) and 304 nM in assay [3] (setting [16]). In addition, the Emax in assay [2] (setting [9]) was 45.5%; in assay [3] (setting [11]) it was 77.5%.
Compound `Fc1cc(Cl)c2[nH]nc(C3=CCCNC3)c2c1` [Example 129, 7-chloro-5-fluoro-3-(1,2,5,6-tetrahydropyridin-3-yl)-1H-indazole] showed a Ki in assay [1] (setting [4]) of 162 nM. In addition, the EC50 came to 20.1 nM in assay [2] (setting [18]) and 3.1 nM in assay [3] (setting [17]). The Emax was 95% in assay [2] (setting [6]) and 88.8% in assay [3] (setting [8]).
As to `CN1CCC=C(c2n[nH]c3cccc(F)c23)C1` [Example 98, 4-fluoro-3-(1-methyl-1,2,5,6-tetrahydropyridin-3-yl)-1H-indazole], the Ki in assay [1] (setting [14]) turned out to be 835 nM. For the same compound, the EC50 in assay [2] (setting [15]) is 483 nM; in assay [3] (setting [16]), 105 nM. In addition, the Emax in assay [2] (setting [9]) was 54%; in assay [3] (setting [11]) it was 58.5%.
As for `CN1CCC=C(c2n[nH]c3c(Cl)cc(F)cc23)C1` [Example 130, 7-chloro-5-fluoro-3-(1-methyl-1,2,5,6-tetrahydropyridin-3-yl)-1H-indazole], the Ki in assay [1] (setting [19]) turned out to be 19.5 nM. Also, the results for the EC50 in assay [2] (setting [18]) and in assay [3] (setting [17]) were 165 nM and 12.9 nM, respectively. Also, the Emax in assay [2] (setting [6]) is 88.5%; in assay [3] (setting [8]), 91.4%.
For `CCCN1CCC=C(c2c[nH]c3c(C#N)cccc23)C1` [Example 157, 3-(1-propyl-1,2,5,6-tetrahydropyridin-3-yl)-1H-indole-7-carbonitrile], the inhibitory constant (Ki) in assay [1] (setting [4]) was determined as 164 nM. The EC50 in assay [2] (setting [5]) was 500 nM; in assay [3] (setting [17]) it was 93 nM. Besides, the Emax in assay [2] (setting [6]) stood at 39.3%; in assay [3] (setting [8]) it was 78%.
For the compound `Cc1ccc2c(C3=CCCNC3)n[nH]c2c1` [Example 76, 6-methyl-3-(1,2,5,6-tetrahydropyridin-3-yl)-1H-indazole], in assay [1] (setting [14]), the affinity corresponds to a Ki of 2460 nM. For the same compound, the EC50 in assay [2] (setting [15]) worked out at 1500 nM; in assay [3] (setting [16]), 118 nM. For the same compound, the Emax in assay [2] (setting [9]) stood at 88.7%; in assay [3] (setting [11]) it was 93.6%.
For `Clc1cccc2c(C34CNCC3C4)c[nH]c12` (single isomer, unassigned) [Example 277, 3-(3-azabicyclo[3.1.0]hexan-1-yl)-7-chloro-1H-indole], the Ki in assay [1] (setting [19]) turned out to be 80.5 nM. Besides, the figures for the EC50 in assay [2] (setting [5]) and in assay [3] (setting [17]) were 212 nM and 83.8 nM, respectively. In addition, the Emax in assay [2] (setting [6]) was 25.4%. For the same compound, the “5HTA Gq Emax (%)” value in assay [3] (BRET2 Gαq dissociation, HEK293T, normalized to 5-HT) worked out at 86.5%.
Turning to `C=CCN1CCC=C(c2n[nH]c3c(Cl)cccc23)C1` [Example 124, 3-(1-allyl-1,2,5,6-tetrahydropyridin-3-yl)-7-chloro-1H-indazole], in assay [1] (setting [14]), the affinity, expressed as Ki, was 159 nM. Also, the EC50 in assay [2] (setting [15]) was 1010 nM; in assay [3] (setting [10]), 49.6 nM. Also, the results for the Emax in assay [2] (setting [9]) and in assay [3] (setting [11]) were 35.3% and 64.9%, respectively.
